Measured values from patent publication US20120171229A1, “SYNTHETIC NANOCARRIERS WITH REACTIVE GROUPS THAT RELEASE BIOLOGICALLY ACTIVE AGENTS” (Selecta Biosciences, Inc., priority 2010, published 2012).

Experiment: Release by thiol addition and hydride reduction (TLC)
Assay type: physicochemical
Details: water with a drop of acetic acid, 2 hours
Description: A portion of the amide was dissolved in water with a drop of acetic acid. This yellow solution was divided into two portions. One portion was treated with sodium dithionite, a reducing agent, and the other was treated with 2-mercaptoethanol. After 2 hours, the samples were diluted with water and extracted with ethyl acetate.

With `CN1CCN(C(=O)CC(C)(C)C2=CC(=O)c3ccccc3C2=O)CC1` [Example 8] the “Release by thiol addition, TLC result” value (2-mercaptoethanol) was “the amide had been consumed with a colorless, non-polar product (lactone) being formed” and the “Release by hydride reduction, TLC result” value (sodium dithionite) was “the amide had been consumed with a colorless, non-polar product (lactone) being formed”.
